Experimental data reported in US7183267B2, “β-lactamase inhibitors and methods of use thereof” (priority 2003, dated 2007).
pKi: −log10 of the molar value.

Experiments:
β-lactamase M69I = β-lactamase M69I (Escherichia coli, UniProt P62593, M67I); experiment: Isothermal titration calorimetry, binding enthalpy, M69I mutant
Description: (§1) The binding of the compounds of the present invention to β-lactamase was also measured by isothermal titration calorimetry.
(§2) These experiments, in combination with the inhibition assays, indicate that the compounds identified in this disclosure bind to the wild type as well as drug resistant beta lactamases with favorable binding enthalpies. This is a very important characteristic from the point of view of further optimization since it facilitates the achievement of extremely high affinities and low susceptibilities to drug resistant mutations and naturally occurring polymorphisms.
(§3) Isothermal titration calorimetry was performed on a high-precision VP-ITC titration calorimeter (Microcal Inc., Northampton, Mass.). β-Lactamase solutions were titrated with inhibitors in 50 mM sodium phosphate, 2% DMSO, pH 7.0, with β-lactamase concentrations ranging from 15 to 25 μM and inhibitor concentrations ranging from 300 to 1000 μM. The heat evolved from each injection was obtained by integrating the calorimetric signal. Heat of binding was obtained as the difference between the heat of reaction and the heat of inhibitor dilution. Data were analyzed using Origin 7.0 (OriginLab Corporation, Northampton, Mass.).

β-lactamase E104K = β-lactamase E104K (Escherichia coli, UniProt P62593, E102K); experiment: Isothermal titration calorimetry, binding enthalpy, E104K mutant
Description: as §1, §2, §3

β-lactamase mutant M69I = β-lactamase mutant M69I (Escherichia coli, UniProt P62593, M67I); format: biochemical; settings: number higher than 1 reflects a loss of potency against mutant
β-lactamase mutant R244S = β-lactamase mutant R244S (Escherichia coli, UniProt P62593, R241S); format: biochemical; settings: number higher than 1 reflects a loss of potency against mutant
β-lactamase mutant E104K = β-lactamase mutant E104K (Escherichia coli, UniProt P62593, E102K); format: biochemical; settings: number higher than 1 reflects a loss of potency against mutant
β-lactamase R244S = β-lactamase R244S (Escherichia coli, UniProt P62593, R241S); experiment: Isothermal titration calorimetry, binding enthalpy, R244S mutant
Description: as §1, §2, §3

TEM-1 β-lactamase = TEM-1 β-lactamase (Escherichia coli, UniProt P62593); experiment: TEM-1 β-lactamase inhibition assay (nitrocefin hydrolysis, 486 nm); format: biochemical; settings: Ki, 25° C., 50 mM sodium phosphate, 5% DMSO, pH 7.0; enzyme 5 nM, nitrocefin 167 μM
Method in brief: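 TEM-1 activity followed by nitrocefin hydrolysis at 486 nm, 25 °C, 50 mM sodium phosphate pH 7.0, 5% DMSO; inhibitor preincubated with enzyme 10 min before substrate. Ki obtained from rates at increasing inhibitor concentrations fitted to competitive-inhibition equations; penicillin G also used as substrate for KM and kcat.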

β-lactamase wt = β-lactamase wt (Escherichia coli, UniProt P62593); experiment: Isothermal titration calorimetry, binding enthalpy, wild type
Description: as §1, §2, §3

AmpC β-lactamase [1] = target: T1, AmpC β-lactamase (Escherichia coli, UniProt P00811); experiment: AmpC β-lactamase competitive inhibition assay (nitrocefin hydrolysis); format: biochemical
T1 construct: made in house; host or cells: E. coli BL21 (DE3)
Description: The gene for AmpC β-lactamase (accession number P00811) was obtained from Escherichia coli K12 strain W3110 (American Type Culture Collection, Rockville Md.). E. coli was grown and plasmid (F-lacIq lacPL8 ampC::lambdacI+) was isolated via Qiagen (Valencia, Calif.) mini prep. The gene for AmpC was amplified in two pieces via polymerase chain reaction, ligated and purified by agarose gel electrophoresis. The ligated gene was inserted into a pET200 vector via a TOPO reaction (Invitrogen, Carlsbad, Calif.).
BL21 (DE3) (Invitrogen) cells were transformed by heat-shock with the prepared plasmid. These cells were grown to an OD600 of 0.8 at 37° C. Isopropylthiogalactoside (IPTG) was added to 1 mM, incubation temperature decreased to 25° C. and the cells were grown for an additional 18 hours. After 18 hours, the E. coli was pelleted by centrifugation, and discarded. The growth media was concentrated and dialyzed versus 100 mM Tris, pH 7.0. This solution was run through an equilibrated Q-resin column, and washed with excess 100 mM Tris, pH 7.0.
The competitive inhibition of β-lactamase was determined spectrophotometrically using a Varian (Walnut Creek, Calif.) Cary 100 UV-Visible spectrophotometer. β-lactamase activity was followed by measuring the hydrolysis of nitrocefin, [3-(2,4-dinitrostyryl)-(6R, 7R)-7-(2-thienylacetamido)-ceph-3-em-4-carboxylic acid, E-isomer], (Calbiochem, San Diego, Calif.) at 486 nm. Inhibition assays were performed at 25° C. in 50 mM sodium phosphate, 5% DMSO, pH 7.0. […] Penicillin G (Sigma, St. Louis, Mo.) was also used as a substrate to determine KM and kcat.
Inhibitor was added to protein and incubated for ten minutes before the addition of substrate. Inhibition constants were determined by measuring the loss of P-lactamase activity with increasing inhibitor concentrations and fitting the data to standard equations for competitive inhibition.

AmpC β-lactamase [2] = target: T1, AmpC β-lactamase; settings: binding to AmpC; ITC
Description: as §3
Isothermal titration calorimetry was undertaken to determine the thermodynamic characteristics of binding to AmpC β-lactamase.

T1 sequence (P00811 20-377): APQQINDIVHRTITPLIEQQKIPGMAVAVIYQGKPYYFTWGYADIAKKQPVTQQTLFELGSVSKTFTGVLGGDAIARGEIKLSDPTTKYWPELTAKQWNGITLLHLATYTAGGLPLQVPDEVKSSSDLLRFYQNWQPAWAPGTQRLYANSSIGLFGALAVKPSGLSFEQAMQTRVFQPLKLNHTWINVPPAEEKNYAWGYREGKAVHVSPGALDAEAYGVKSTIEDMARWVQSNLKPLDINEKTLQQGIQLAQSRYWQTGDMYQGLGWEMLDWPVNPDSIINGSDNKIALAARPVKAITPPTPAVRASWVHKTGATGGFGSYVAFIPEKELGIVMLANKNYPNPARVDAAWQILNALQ

## O=C(OCc1ccccc1)c1cc(B(O)O)cc([N+](=O)[O-])c1 [Compound F1201]
β-lactamase M69I
  ΔH M69I: -2.4 kcal/mol
β-lactamase E104K
  ΔH E104K: -3.5 kcal/mol
β-lactamase mutant M69I
  Loss of potency: ratio of the inhibitory constant between mutant and wild type (Potencywt/Potencymutant), M69I: 0.52
β-lactamase mutant R244S
  Loss of potency: ratio of the inhibitory constant between mutant and wild type (Potencywt/Potencymutant), R244S: 0.86
β-lactamase mutant E104K
  Loss of potency: ratio of the inhibitory constant between mutant and wild type (Potencywt/Potencymutant), E104K: 0.48
β-lactamase R244S
  ΔH R244S: -6.5 kcal/mol
TEM-1 β-lactamase
  pKi: 4.57
β-lactamase wt
  ΔH wt: -3.2 kcal/mol
AmpC β-lactamase [1]
  pKi: 5.35
AmpC β-lactamase [2]
  ΔG: -6.566 kcal/mol
  ΔH: -5.084 kcal/mol
  −TΔS: -1.482 kcal/mol
